Source: patent US4309439A, “Substituted-acetic acid ester” (Sumitomo Chemical Company, Limited, priority 1975, dated 1982)
≈ marks a conversion by molar mass, not a printed value. Read-outs that look alike come from different tables or passages of the source.

Assays:
Type in all cases: in vivo
[1] = tested on: smaller brown planthoppers (Laodelphax striatellus); assay: LC50 against smaller brown planthoppers on sprayed rice plants (Experimental Example 2); conditions: 24 h
Protocol: The following compounds as a control are also treated in the same manner as described above.
The emulsifiable concentrates thus formulated were diluted with water to a required concentration. Each test solution thus prepared was individually sprayed on the rice plants in a pot which had elapsed 25 days after sowing, in a proportion of 10 ml/pot. Thereafter, each pot was covered with a cylindrical wire net and 15 smaller brown planthoppers (Laodelphax striatellus) were liberated in the pot. After one day, the dead and alive were observed and the value of LC50 of every concentrate was obtained from the mortality.
The compounds of the present invention are expressed by the foregoing compound number.

[2] = tested on: house-fly adults (Musca domestica); assay: knock-down of house-fly adults by 0.1% oil spray in glass chamber (Experimental Example 3); conditions: 0.7 ml, (70 cm)^3 glass chamber
Protocol: Each of the following present compounds is formulated into a 0.1% oil spray using deodorized kerosene. The following compounds as a control are also likewise treated.
About 50 house-fly adults (Musca domestica) are liberated in a (70 cm)^3 glass chamber. Thereafter, 0.7 ml of each oil spray is sprayed under a pressure of 1.5 kg/cm^2 and the knock-down of the insects with the lapse of time is observed. This test is repeated several times with each oil spray to obtain the values of KT50 (time required for 50% knock-down) as shown in the following table. The present compounds are indicated by the foregoing compound number.

[3] = tested on: Carmine mite female adults (Tetranychus cinnabarinus); assay: damage of kidney beans by carmine mites (Example 20); conditions: emulsifiable concentrate of Preparation Example 1 diluted 500 times; 10 cc/pot; after 10 days
Protocol: To 20 parts of each of the present compounds (1), (2), (3), (4), (5), (8), (10), (11), (14), (18), (19), (21), (23), (28), (30) and (33) are added 20 parts of Sorpol SM-200 (the same as above) and 60 parts of xylene. The mixtures are each thoroughly mixed to make a solution. Thus emulsifiable concentrate of each compound is obtained.
Carmine mite female adults (Tetranychus cinnabarinus) were made parasitic on the leaves of potted kidney beans (2-leaf stage) which had elapsed 9 days after sowing, in a proportion of 10-15/leaf. […] Among the emulsifiable concentrates formulated according to Preparation Example 1, those containing the present compounds (1), (4), (14), (19), (23), (30) and (33) were each diluted 500 times with water. At this time, each test solution thus prepared was sprayed in a proportion of 10 cc/pot by means of a turn table. After 10 days, damage of the kidney beans by the insects was checked.

[4] = tested on: armyworms and cutworms, cabbage worm and diamond-back moth; assay: green-house test on chinese cabbages with armyworms and cutworms, cabbage worm and diamond-back moth (Example 21); conditions: 20% solution in cellosolve; active ingredient 50 g/10 are
Protocol: A green-house (3 m in height) was divided into plots having an area of 30 m^2 and chinese cabbages were grown up therein. Thereafter, armyworms and cutworms, cabbage worm and diamond-back moth were artificially made parasitic on the cabbages. The present compounds (1), (3) and (4) were each dissolved in cellosolve to make a 20% solution. Each test solution thus prepared was sprayed under pressure on the cabbages so that the amount of the active ingredient becomes 50 g/10 are.

[5] = tested on: green rice leafhoppers (Nephotettix cincticeps); assay: mortality of green rice leafhoppers on sprayed rice plants (Experimental Example 1); conditions: 30% concentrate / wettable powder diluted 300 times; 10 ml/pot; after one day; 1440 min
Protocol: An emulsifiable concentrate is prepared by blending 30% of each of the present compounds (1) to (35), 50% of xylene and 20% of Sorpol SM-200 (a registered trade mark of Toho Kagaku Co.).
The emulsifiable concentrates thus formulated were diluted 300 times with water. […] Each test solution thus prepared was individually sprayed on the rice plants in a pot which had elasped 25 days after sowing, in a proportion of 10 ml/pot. Thereafter, each pot was covered with a cylindrical wire net and 15 green rice leafhoppers (Nephotettix cincticeps) were liberated in the pot.

[6] = tested on: green rice leafhopper adults (Nephotettix cincticeps); assay: kill of green rice leafhopper adults by dusts on rice plants (Example 18); conditions: dust of Preparation Example 6 (with piperonyl-butoxide), 3 kg/10 are; after one day; 1440 min
Protocol: One part of each of the present compounds (2), (4), (5), (7), (12), (17), (20), (21), (22), (25), (26), and (35) and 5 parts of piperonyl-butoxide are dissolved in 20 parts of acetone, and then 94 parts of 300 mesh talc are added thereto. After thoroughly mixing in a mortar while stirring, acetone is removed by evaporation. Thus dust of each compound is obtained.
Among the dusts formulated according to Preparation Example 6, those containing the present compounds (2), (7), (12), and (25) were each dusted, using Belljar duster, on the rice plants in a 1/50,000 Wagner pot which had elapsed 45 days after sowing, in a proportion of 3 kg/10 are. After covering the pot with wire net, about 30 green rice leafhopper adults (Nephotettix cincticeps) were liberated therein. After one day, more than 70% of the test insects were killed.

[7] = rice plants sprayed 10 ml/pot, after one day, read-out: LC50

Row | SMILES | LC50 [1, 7] [mg/L] | KT50 (time required for 50% knock-down) [2] [s] | other results
1 | C#CCC=C(C)C(C#C)OC(=O)C(c1ccc2c(c1)OCO2)C(C)C (stereo not drawn) [Compound 4, 4-Methylocta-4-ene-1,7-diyne-3-yl α-isopropyl-3,4-methylenedioxyphenyl-acetate] | 28 (≈ 82.7 µM) | 136 | increase in damage of the kidney beans [3]: an increase in the damage was not observed; spread of damage by the insect [4]: no spread of damage by the insect was observed
2 | CC(C)C(C(=O)OCc1coc(Cc2ccccc2)c1)c1ccc(Cl)cc1 (stereo not drawn) [reference compound] |  | 510 | 
3 | C#CC(C=Cc1ccccc1)OC(=O)C(c1ccc(SC)cc1)C(C)C (stereo not drawn) [Compound 27, 5-Phenylpenta-4-ene-1-yne-3-yl α-isopropyl-4-methylthiophenyl-acetate] | 66 (≈ 181 µM) |  | 
4 | CC(C)=CC1C(C(=O)OCc2coc(Cc3ccccc3)c2)C1(C)C (stereo not drawn) [Resmethrin, reference compound] |  | > 600 | 
5 | C#CCC=C(C)C(C#C)OC(=O)C(c1ccc2c(c1)CCC2)C(C)C (stereo not drawn) [Compound 33, 4-Methylocta-4-ene-1,7-diyne-3-yl 2-(5-indanyl)-isovalerate] |  |  | increase in damage of the kidney beans [3]: an increase in the damage was not observed
6 | C#CCC=C(C)C(C#C)OC(=O)C(c1ccc2c(c1)CCCC2)C(C)C (stereo not drawn) [Compound 5, 4-Methylocta-4-ene-1,7-diyne-3-yl α-isopropyl-3,4-tetramethylenephenyl-acetate] |  | 140 | 
7 | C#CCc1ccc(C(C#C)OC(=O)C(c2ccc(OC)cc2)C(C)C)o1 (stereo not drawn) [reference compound] |  | 183 | 
8 | CNC(=O)Oc1cccc2ccccc12 [Carbaryl, 1-naphthyl-N-methylcarbamate] |  |  | mortality [5]: more than 90%
9 | C#CCCC=C(C)C(C#C)OC(=O)C(c1ccc(Br)cc1)C(C)C (stereo not drawn) [Compound 11, 4-Methylnona-4-ene-1,8-diyne-3-yl α-isopropyl-4-bromophenylacetate] |  | 147 | 
10 | CNC(=O)Oc1ccccc1Cl [Hopcide, reference compound] |  |  | LC50 [1]: 75 mg/L (≈ 404 µM)
11 | COc1ccc(C(C(=O)OCc2cccc(Oc3ccccc3)c2)C(C)C)cc1 (stereo not drawn) [reference compound] | 87 (≈ 223 µM) |  | 
12 | C#CCC=C(C)C(C#C)OC(=O)C(c1cc2c(s1)CCCC2)C(C)C (stereo not drawn) [Compound 29] | 48 (≈ 135 µM) |  | 
13 | C#CCC=C(C)C(C#C)OC(=O)C(c1csc(C)c1)C(C)C (stereo not drawn) [Compound 7, 4-Methylocta-4-ene-1,7-diyne-3-yl 2-(5-methyl-3-thienyl)-isovalerate] |  | 175 | test insects killed [6]: more than 70%
14 | C#CCC=C(C)C(C#C)OC(=O)C(c1coc(C)c1)C(C)C (stereo not drawn) [Compound 6, 4-Methylocta-4-ene-1,7-diyne-3-yl 2-(5-methyl-3-furyl)-isovalerate] | 32 (≈ 107 µM) |  | 
15 | C#CCC=C(C)C(C#C)OC(=O)C(c1cc2c(s1)CCC2)C(C)C (stereo not drawn) [Compound 30, 4-Methylocta-4-ene-1,7-diyne-3-yl 2-(4,5-tri-methylene-thienyl)-isovalerate] |  | 158 | increase in damage of the kidney beans [3]: an increase in the damage was not observed
16 | C#CCC=C(C)C(C#C)OC(=O)C(c1ccc(Cl)c(Cl)c1)C(C)C (stereo not drawn) [Compound 2, 4-Methylocta-4-ene-1,7-diyne-3-yl α-isopropyl-3,4-dichlorophenyl-acetate] | 31 (≈ 85.3 µM) |  | test insects killed [6]: more than 70%
17 | C#CCC=C(C)C(C#C)OC(=O)C(c1ccc(Cl)cc1)C(C)C (stereo not drawn) [Compound 1, 4-Methylocta-4-ene-1,7-diyne-3-yl α-isopropyl-4-chlorophenylacetate] | 23 (≈ 69.9 µM) | 128 | increase in damage of the kidney beans [3]: an increase in the damage was not observed; spread of damage by the insect [4]: no spread of damage by the insect was observed
18 | C#CC(OC(=O)C(c1ccc(OC)cc1)C(C)C)C(C)=CCCC=C (stereo not drawn) [Compound 14, 4-Methylnona-4,8-diene-1-yne-3-yl α-isopropyl-4-methoxyphenylacetate] | 46 (≈ 135 µM) | 174 | increase in damage of the kidney beans [3]: an increase in the damage was not observed
19 | C#CCCC=C(C)C(C#C)OC(=O)C(CC)c1ccc(C#N)cc1 (stereo not drawn) [Compound 23, 4-Methylnona-4-ene-1,8-diyne-3-yl α-ethyl-4-cyanophenylacetate] | 50 (≈ 157 µM) | 140 | increase in damage of the kidney beans [3]: an increase in the damage was not observed
20 | COc1ccc(C(C(=O)OC(C#N)c2cccc(Oc3ccccc3)c2)C(C)C)cc1 (stereo not drawn) [drawing 45, reference compound] | 73 (≈ 176 µM) |  | 
21 | C=CCC1=C(C)C(OC(=O)C2C(C=C(C)C)C2(C)C)CC1=O (stereo not drawn) [Allethrin, reference compound] |  | 504 | 
22 | COc1ccc(C(C(=O)OC(C#N)c2cccc(Oc3ccccc3)c2)C(C)C)cc1 (stereo not drawn) [drawing 50, reference compound] |  | 490 | 
23 | C#CCC=C(CC)C(C#C)OC(=O)C(c1ccc(Cl)cc1)C(C)C (stereo not drawn) [Compound 10, 4-Ethylocta-4-ene-1,7-diyne-3-yl α-isopropyl-4-chlorophenylacetate] | 34 (≈ 99.2 µM) |  | 
24 | C#CCC=C(C)C(C#C)OC(=O)C(c1cc2ccccc2o1)C(C)C (stereo not drawn) [Compound 34, 4-Methylocta-4-ene-1,7-diyne-3-yl 2-(2-benzo-furyl)-isovalerate] |  | 170 | 
25 | C#CCc1ccc(COC(=O)C(c2ccc(Cl)cc2)C(C)C)o1 (stereo not drawn) [reference compound] | 68 (≈ 206 µM) |  | 
26 | C#CCC=C(C)C(C#C)OC(=O)C(c1ccc(OC)cc1)C(C)C (stereo not drawn) [Compound 3, 4-Methylocta-4-ene-1,7-diyne-3-yl α-isopropyl-4-methoxyphenylacetate] | 35 (≈ 108 µM) | 139 | spread of damage by the insect [4]: no spread of damage by the insect was observed
27 | C#CCC=C(C)C(C#C)OC(=O)C(c1ccc(OC)c(OC)c1)C(C)(C)C (stereo not drawn) [Compound 19, 4-Methylocta-4-ene-1,7-diyne-3-yl α-t-butyl-3,4-dimethoxyphenyl-acetate] | 43 (≈ 117 µM) |  | increase in damage of the kidney beans [3]: an increase in the damage was not observed
28 | C#CC(OC(=O)C(c1ccc(F)cc1)C(C)C)C(C)=CCc1ccccc1 (stereo not drawn) [Compound 12, 6-Phenyl-4-methylhexa-4-ene-1-yne-3-yl α-isopropyl-4-fluoro-phenylacetate] |  |  | test insects killed [6]: more than 70%
29 | C#CCC(C(=O)OC(C#C)C(=CCCC=C)CC)c1ccc(CC)cc1 (stereo not drawn) [Compound 25, 4-Ethylnona-4,8-diene-1-yne-3-yl α-propargyl-4-ethylphenylacetate] |  |  | test insects killed [6]: more than 70%
